Laboratory results: PubChem BioAssay (NCI)
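Cultured in 96-well plates, cells were exposed to test compound for 48 hours across five concentrations. At the GI50, growth is halved. TGI marks complete inhibition of growth.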

What was measured:
Experiment in all cases: growth of human tumour cells (NCI), 48 h
CCRF-CEM leukemia = test system: CCRF-CEM leukemia
HCC-2998 colon = test system: HCC-2998 colon
SK-MEL-28 melanoma = test system: SK-MEL-28 melanoma
SW-620 colon = test system: SW-620 colon
TK-10 renal = test system: TK-10 renal
UACC-257 melanoma = test system: UACC-257 melanoma
UACC-62 melanoma = test system: UACC-62 melanoma
UO-31 renal = test system: UO-31 renal
NCI-H23 lung = test system: NCI-H23 lung
NCI/ADR-RES ovarian = test system: NCI/ADR-RES ovarian

**Q.** With `CC/C(=C(/CC)c1ccc(OP(=O)([O-])[O-])cc1)c1ccc(OP(=O)([O-])[O-])cc1.N.N.N.N.[Pt+4].[Pt+4]` as the molecule, how does the GI50 (CCRF-CEM leukemia) read?
**A.** The GI50 was 0.898 µM.

**Q.** And the TGI (CCRF-CEM leukemia)?
**A.** Its TGI is over 100 µM.

**Q.** What about the GI50 (HCC-2998 colon) of the same molecule?
**A.** The GI50 was 11.6 µM.

**Q.** What about the TGI (HCC-2998 colon) of the same molecule?
**A.** Its TGI is 24 µM.

**Q.** And the GI50 (SK-MEL-28 melanoma)?
**A.** The GI50 was 2.07 µM.

**Q.** What about the TGI (SK-MEL-28 melanoma) of the same molecule?
**A.** Its TGI is 6.28 µM.

**Q.** What about the GI50 (SW-620 colon) of the same molecule?
**A.** The GI50 was 5.19 µM.

**Q.** And the TGI (SW-620 colon)?
**A.** Its TGI is 62.2 µM.

**Q.** What about the GI50 (TK-10 renal) of the same molecule?
**A.** The GI50 was 4.73 µM.

**Q.** What about the TGI (TK-10 renal) of the same molecule?
**A.** Its TGI is over 100 µM.

**Q.** What about the GI50 (UACC-257 melanoma) of the same molecule?
**A.** Its GI50 is 2.99 µM.

**Q.** And the TGI (UACC-257 melanoma)?
**A.** The TGI was 10.1 µM.

**Q.** What about the GI50 (UACC-62 melanoma) of the same molecule?
**A.** Its GI50 is 0.901 µM.

**Q.** And the TGI (UACC-62 melanoma)?
**A.** Its TGI is 5.15 µM.

**Q.** What about the GI50 (UO-31 renal) of the same molecule?
**A.** Its GI50 is 4.3 µM.

**Q.** What about the TGI (UO-31 renal) of the same molecule?
**A.** Its TGI is 25.4 µM.

**Q.** Which results are given for `CC1C2CC(CC2=O)C1(C)C` (stereo not given)?
**A.** TGI (CCRF-CEM leukemia): > 100 µM; TGI (HCC-2998 colon): > 100 µM; TGI (NCI-H23 lung): > 100 µM; TGI (SK-MEL-28 melanoma): > 100 µM; TGI (SW-620 colon): > 100 µM; TGI (TK-10 renal): > 100 µM; TGI (UACC-257 melanoma): > 100 µM; TGI (UACC-62 melanoma): > 100 µM; TGI (UO-31 renal): > 100 µM

**Q.** How did the TGI (CCRF-CEM leukemia) turn out when `CCN1N=CSC12C(=O)N(c1ccccc1)C(=O)N2c1ccccc1` (stereo not given) was run?
**A.** The TGI was over 100 µM.

**Q.** What about the TGI (HCC-2998 colon) of the same molecule?
**A.** Its TGI is over 100 µM.

**Q.** And the TGI (NCI-H23 lung)?
**A.** Its TGI is over 100 µM.

**Q.** And the TGI (SK-MEL-28 melanoma)?
**A.** The TGI was over 100 µM.

**Q.** What about the TGI (SW-620 colon) of the same molecule?
**A.** The TGI was over 100 µM.

**Q.** And the TGI (TK-10 renal)?
**A.** The TGI was over 100 µM.

**Q.** What about the TGI (UACC-257 melanoma) of the same molecule?
**A.** The TGI was over 100 µM.

**Q.** What about the TGI (UACC-62 melanoma) of the same molecule?
**A.** Its TGI is over 100 µM.

**Q.** And the TGI (UO-31 renal)?
**A.** The TGI was over 100 µM.

**Q.** For `COC(=O)[C@@]12C3=NO[C@]1(C(=O)OC)C(O[Si](C)(C)C(C)(C)C)C1OC(C)(C)OC1[C@@H]2[C@@H](OCc1ccccc1)CC3` (stereo not given in full), which TGI (CCRF-CEM leukemia) is on record?
**A.** Its TGI is over 100 µM.

**Q.** What about the TGI (HCC-2998 colon) of the same molecule?
**A.** The TGI was over 100 µM.

**Q.** What about the TGI (NCI-H23 lung) of the same molecule?
**A.** The TGI was over 100 µM.

**Q.** And the TGI (SK-MEL-28 melanoma)?
**A.** Its TGI is over 100 µM.

**Q.** And the TGI (SW-620 colon)?
**A.** Its TGI is over 100 µM.

**Q.** What about the TGI (TK-10 renal) of the same molecule?
**A.** Its TGI is over 100 µM.

**Q.** And the TGI (UACC-62 melanoma)?
**A.** Its TGI is over 100 µM.

**Q.** And the TGI (UO-31 renal)?
**A.** Its TGI is over 100 µM.

**Q.** How did the TGI (CCRF-CEM leukemia) turn out when `COc1ccc(C=O)c(N(C)C(=O)C(C)(C)C)c1` was run?
**A.** The TGI was over 100 µM.

**Q.** And the TGI (HCC-2998 colon)?
**A.** The TGI was over 100 µM.

**Q.** And the TGI (NCI-H23 lung)?
**A.** The TGI was over 100 µM.

**Q.** What about the TGI (SK-MEL-28 melanoma) of the same molecule?
**A.** The TGI was over 100 µM.

**Q.** What about the TGI (SW-620 colon) of the same molecule?
**A.** Its TGI is over 100 µM.

**Q.** And the TGI (TK-10 renal)?
**A.** Its TGI is over 100 µM.

**Q.** What about the TGI (UACC-257 melanoma) of the same molecule?
**A.** The TGI was over 100 µM.

**Q.** What about the TGI (UACC-62 melanoma) of the same molecule?
**A.** Its TGI is over 100 µM.

**Q.** And the TGI (UO-31 renal)?
**A.** The TGI was over 100 µM.

**Q.** For `C=C1CCC2C3(C)COC(c4cccc(Cl)c4)OC3CCC2(C)C1/C=C/C1=CCOC1=O` (stereo not given), which GI50 (CCRF-CEM leukemia) is on record?
**A.** The GI50 was 7.51 µM.

**Q.** And the TGI (CCRF-CEM leukemia)?
**A.** Its TGI is over 100 µM.

**Q.** What about the GI50 (NCI-H23 lung) of the same molecule?
**A.** Its GI50 is 5.17 µM.

**Q.** What about the TGI (NCI-H23 lung) of the same molecule?
**A.** Its TGI is over 100 µM.

**Q.** And the GI50 (NCI/ADR-RES ovarian)?
**A.** The GI50 was 6.06 µM.

**Q.** What about the TGI (NCI/ADR-RES ovarian) of the same molecule?
**A.** The TGI was over 100 µM.

**Q.** What about the GI50 (SK-MEL-28 melanoma) of the same molecule?
**A.** The GI50 was over 100 µM.

**Q.** What about the TGI (SK-MEL-28 melanoma) of the same molecule?
**A.** The TGI was over 100 µM.

**Q.** And the GI50 (SW-620 colon)?
**A.** Its GI50 is 80.3 µM.

**Q.** What about the TGI (SW-620 colon) of the same molecule?
**A.** The TGI was over 100 µM.

**Q.** What about the GI50 (TK-10 renal) of the same molecule?
**A.** Its GI50 is over 100 µM.

**Q.** And the TGI (TK-10 renal)?
**A.** The TGI was over 100 µM.

**Q.** And the GI50 (UACC-257 melanoma)?
**A.** The GI50 was 3.43 µM.

**Q.** What about the TGI (UACC-257 melanoma) of the same molecule?
**A.** Its TGI is over 100 µM.

**Q.** What about the GI50 (UACC-62 melanoma) of the same molecule?
**A.** The GI50 was 6.35 µM.

**Q.** What about the TGI (UACC-62 melanoma) of the same molecule?
**A.** The TGI was over 100 µM.

**Q.** For `COC(=O)C12C3C=CC(O3)C1C1C=CC2O1` (stereo not given), which TGI (CCRF-CEM leukemia) is on record?
**A.** The TGI was over 100 µM.

**Q.** What about the TGI (HCC-2998 colon) of the same molecule?
**A.** The TGI was over 100 µM.

**Q.** And the TGI (NCI-H23 lung)?
**A.** The TGI was over 100 µM.

**Q.** And the TGI (SK-MEL-28 melanoma)?
**A.** Its TGI is over 100 µM.

**Q.** And the TGI (SW-620 colon)?
**A.** Its TGI is over 100 µM.

**Q.** And the TGI (TK-10 renal)?
**A.** The TGI was over 100 µM.

**Q.** And the TGI (UACC-257 melanoma)?
**A.** Its TGI is over 100 µM.

**Q.** What about the TGI (UO-31 renal) of the same molecule?
**A.** The TGI was over 100 µM.

**Q.** Which results are given for `CCOC(=O)C1=C(O)CSC1=Nc1ccc(N=C2SCC(O)=C2C(=O)OCC)cc1`?
**A.** TGI (CCRF-CEM leukemia): > 100 µM; TGI (SK-MEL-28 melanoma): 40.8 µM; TGI (SW-620 colon): 66.6 µM; TGI (TK-10 renal): 94.7 µM; TGI (UACC-257 melanoma): 75.5 µM; TGI (UACC-62 melanoma): 44.2 µM; TGI (UO-31 renal): 37.7 µM

**Q.** With `COC(=O)C1(c2ccc(OC)cc2)NC(c2ccccc2)C2C(=O)N(c3ccc(OC)cc3)C(=O)C21` (stereo not given) as the molecule, how does the TGI (CCRF-CEM leukemia) read?
**A.** Its TGI is over 100 µM.

**Q.** What about the TGI (HCC-2998 colon) of the same molecule?
**A.** Its TGI is over 100 µM.

**Q.** What about the TGI (NCI-H23 lung) of the same molecule?
**A.** The TGI was over 100 µM.

**Q.** What about the TGI (SK-MEL-28 melanoma) of the same molecule?
**A.** Its TGI is over 100 µM.

**Q.** And the TGI (SW-620 colon)?
**A.** Its TGI is over 100 µM.

**Q.** What about the TGI (TK-10 renal) of the same molecule?
**A.** Its TGI is over 100 µM.

**Q.** And the TGI (UACC-257 melanoma)?
**A.** The TGI was over 100 µM.

**Q.** And the TGI (UACC-62 melanoma)?
**A.** Its TGI is over 100 µM.

**Q.** And the TGI (UO-31 renal)?
**A.** The TGI was over 100 µM.

**Q.** `Cn1c(=O)c2c(nc3n2C(CCl)CO3)n(C)c1=O` (stereo not given) was tested. Which TGI (CCRF-CEM leukemia) did it give?
**A.** The TGI was over 100 µM.

**Q.** What about the TGI (HCC-2998 colon) of the same molecule?
**A.** The TGI was over 100 µM.

**Q.** And the TGI (NCI-H23 lung)?
**A.** The TGI was over 100 µM.

**Q.** What about the TGI (SK-MEL-28 melanoma) of the same molecule?
**A.** Its TGI is over 100 µM.

**Q.** And the TGI (SW-620 colon)?
**A.** Its TGI is over 100 µM.

**Q.** What about the TGI (TK-10 renal) of the same molecule?
**A.** The TGI was over 100 µM.

**Q.** And the TGI (UACC-257 melanoma)?
**A.** The TGI was over 100 µM.

**Q.** And the TGI (UACC-62 melanoma)?
**A.** Its TGI is over 100 µM.

**Q.** And the TGI (UO-31 renal)?
**A.** Its TGI is over 100 µM.
